In patent publication US5597894A (The Louisiana State University Medical Center Foundation, priority 1995, dated 1997):
Like-named read-outs stand apart in the source and are kept apart here. Positions of bridges follow the written chain, without caps; N, C: chain ends. Non-standard residues stand in square brackets, D forms with d. Residues, ends and D or L forms follow the SMILES beside them.

Legend:
[1] = test system: rat pituitary cells, which express SSTR2; experiment: Inhibition of growth hormone (GH) release from acutely dispersed rat pituitary cells; assay type: cell-based; settings: in the presence of 1 nM GRF(1-29)NH2, 3 h at 37° C., number in brackets = samples tested
From the text: Pituitaries from adult Charles River CD male rats (Wilmington, Mass.) housed under controlled conditions (lights on from 0500-1900 hrs), were dispersed and cultured using aseptic technique as previously described with modifications (Hoefer et al., Mol. Cell Endocrinol., 35:229, (1984); Ben-Jonathan et al., i Methods Enzymol., 103:249, (1983); and Heiman et al., Endocrinology, 116:410, (1985).
Briefly, pituitaries were removed from decapitated rats, sectioned, and then placed in a siliconized, liquid scintillation vial containing 2 ml 0.2% trypsin (Worthington Biochemicals, Freehold, N.J.) in sterile-filtered Krebs-Ringer bicarbonate buffer supplemented with 1% bovine serum albumin, 14 mM glucose, modified Eagle medium (MEM) vitamin solution and MEM amino acids (Gibco Laboratories, Grand Island, N.Y.) (KRBGA). All glassware was siliconized as described by Sayers et al., Endocrinology, 88:1063, (1971). The pituitary fragments were incubated in a water bath for 35 min at 37° C. with agitation. The vial contents were then poured into a scintillation vial containing 2 ml 0.1% DNase (Sigma Chemical Co., St. Louis, Mo.) in KRBGA and incubated for 2 min at 37° C. with agitation. After incubation the tissue was decanted into a 15 ml centrifuge tube and allowed to settle. The medium was discarded, and the pituitary sections were washed 3 times with 1 ml fresh KRBGA. The cells were dispersed in 2 ml 0.05% LBI (lima bean trypsin inhibitor, Worthington Biochemicals) by gently drawing the fragments into and expelling them out of a siliconized, fire-polished Pasteur pipette. Dispersed cells were filtered through a 630 μm diameter Nylon mesh (Tetko, Elmsford, N.Y.) into a fresh 15 ml centrifuge tube. An additional 2 ml of 0.05% LBI solution was used to rinse the first tube and was transferred to the second tube with filtering.
The dispersed cells were further diluted with approximately 15 ml sterile-filtered Dulbecco's modified Eagle medium (GIBCO), supplemented with 2.5% fetal calf serum (GIBCO), 3% horse serum (GIBCO), 10% fresh rat serum (stored on ice for no longer than 1 h) from the pituitary donors, 1% MEM non-essential amino acids (GIBCO), gentamycin ([…]; Sigma) and nystatin (10,000 U/ml; GIBCO). The cells were poured into a 50 ml round-bottomed glass extraction flask with a large diameter opening, counted with a hemacytometer (approximately 2,000,000 cells per pituitary), and randomly plated at a density of 200,000 cells per well (Co-star cluster 24; Rochester Scientific Co., Rochester, N.Y.). The plated cells were maintained in Dulbecco's medium in a humidified atmosphere of 95% air and 5% CO2 at 37° C. for 4 days to 5 days.
In preparation for a hormone challenge, the cells were washed 3 times with medium 199 (GIBCO) to remove old medium and floating cells. […] After 3 h at 37° C. in an air/carbon dioxide atmosphere (95/5%), the medium was removed and stored at -20 ° C. until assayed for hormone content. IC50 's (a concentration that provides half-maximal inhibition of GH release) were calculated using the computer program SigmaPlot (Jandel Scientific, San Rafael, Calif.).

[2] = molecular target: T1, type 2 somatostatin receptors (SSTR2) (Homo sapiens, UniProt P30874); experiment: Somatostatin receptor binding assay on IMR32 membranes
T1 construct: IMR32 membrane fractions (100-150 μg) were incubated with 0.015 pM; host or cells: IMR32 human neuroblastoma cells (membrane fractions)
Description: The IMR32 cells were maintained in minimal essential media (MEM) supplemented with 15% heat-inactivated fetal bovine serum, 100 U/ml penicillin, 100 μg/ml streptomycin and nonessential amino acids. Cultured cells were harvested in a buffer containing 20 mM HEPES, 2 mM MgCl2, 5 mM EDTA, 1 mM 2-mercaptoethanol, 150 mM NaCl, and 50 μg/ml phenylmethylsulfonylfluoride (PMSF), (pH 7.4) at a concentration of 1×10^6 cells/ml. Cell membranes were prepared according to the method of O'Dorisio, M. S. et al., Cell Growth and Differentiation, 5:1-8, 1994. Membrane fractions were prepared by differential centrifugation and the membranes resuspended in buffer and stored at -80° for receptor binding studies.
Binding assays were carried out according to the method of O'Dorisio et al., supra. […] The reaction was terminated by centrifugation at 11,000×G for 3 minutes. Supernatant fluid was aspirated and the radioactivity of bound ligand in the pellet quantified in a gamma counter.
Specific binding was calculated using the difference between total and non-specific (in the presence of 1 μM unlabeled ligand) binding. Equilibrium dissociation constants (KD) and the maximal number of binding sites (Bmax) were determined using seven concentrations of unlabeled peptide in a competitive binding curve and calculated using a computerized nonlinear least squares fit to the mass-law equation of Munson and Rodbard, Munson, P. J. et al., Anal. Biochem., 107:220-239, 1980, as modified by McPhearson, G. A., J. of Pharm. Meth., 14:213-228, 1985.

[3] = Stability of 131I-labeled peptides stored in saline; assay type: physicochemical; settings: one week after labeling
Description: All specimen activity (μCi) was measured in a dose calibrator at least 30 minutes prior to intravenous injection. Radiolabeled peptide was injected through a peripheral arm vein in a free-flowing intravenous line. One week after labeling, only 30% of the ^131 I-labeled multi-tyrosinated peptides WOC-3A and WOC-3B compounds stored in saline had degraded.

[4] = test system: bronchioloalveolar carcinoma of the lung; experiment: Subcutaneous octreotide acetate therapy in a human patient; settings: 2 mg/day subcutaneous
From the text: The patient is a person diagnosed with bronchioloalveolar carcinoma of the lung approximately four years ago. […] underwent a right upperlobectomy and intensive chemotherapy with multiple agents.

[5] = test system: bronchioloalveolar carcinoma of the lung (somatostatin receptor-expressing tumors); experiment: Biodistribution and dosimetry of 131I WOC-3A (1.6 mCi i.v.) in a human patient; assay type: in vivo; settings: extrapolated for a dose of 1,500 mCi
Description: A batch of ^131 I WOC-3A (1.6 mCi) was made (Iso-Tex Corporation, Friendswood, TX) and its sterility and pyrogenicity tested at Iso-Tex. Radiolabeled WOC-3A was injected intravenously and the pharmacokinetics and biodistribution of the radiolabeled compound were calculated. The tumor/normal tissue ratio of distribution of radiolabeled WOC-3A was approximately 3:1 to 6:1.
Following injection of 1.6 mCi of ^131 I WOC-3A, the patient underwent three days of nuclear medicine scanning using a 3-headed SPECT camera as well as an ADAC camera. In addition, whole body radiation counts were obtained to calculate whole-body loss of radioisotope over the three day period. […] Bone marrow would receive in excess of 450 rads (a dose requiring bone marrow transplantation in 50% of patients). Thus, in preparation for bone marrow transplantation, the patient underwent bone marrow harvest to provide cells for reinfusion after WOC-3 therapy and sufficient clearance of the radiolabeled analog from the patient's circulation.

[6] = IMR32 membranes, competitive binding, 17° C., 30 minutes

T1 sequence (P30874 whole entry): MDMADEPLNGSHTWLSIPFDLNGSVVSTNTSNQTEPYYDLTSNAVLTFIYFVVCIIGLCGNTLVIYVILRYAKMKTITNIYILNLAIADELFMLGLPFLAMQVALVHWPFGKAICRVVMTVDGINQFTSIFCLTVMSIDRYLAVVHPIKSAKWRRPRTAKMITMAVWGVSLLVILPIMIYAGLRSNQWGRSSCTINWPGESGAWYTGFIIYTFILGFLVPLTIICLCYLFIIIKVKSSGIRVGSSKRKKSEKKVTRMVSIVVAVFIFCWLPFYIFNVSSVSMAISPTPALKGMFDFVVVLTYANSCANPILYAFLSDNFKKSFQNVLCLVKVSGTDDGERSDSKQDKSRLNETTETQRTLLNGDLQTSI

## C[C@H](N)C(=O)NCC(=O)N[C@H]1CSSC[C@@H](C(=O)O)NC(=O)[C@H](CO)NC(=O)[C@H]([C@@H](C)O)NC(=O)[C@H](Cc2ccccc2)NC(=O)[C@H]([C@@H](C)O)NC(=O)[C@H](CCCCN)NC(=O)[C@H](Cc2c[nH]c3ccccc23)NC(=O)[C@H](Cc2ccccc2)NC(=O)[C@H](Cc2ccccc2)NC(=O)[C@H](CC(N)=O)NC(=O)[C@H](CCCCN)NC1=O [Somatostatin, reference compound]
[1]
  IC50: 0.46 ± 0.04 nM

## CC(C)[C@@H]1NC(=O)[C@H](CCCCN)NC(=O)[C@@H](Cc2c[nH]c3ccccc23)NC(=O)[C@H](Cc2ccc(O)cc2)NC(=O)[C@@H](NC(=O)[C@H](N)Cc2ccc(O)cc2)CSSC[C@@H](C(=O)N[C@H](C(N)=O)[C@@H](C)O)NC1=O [WOC-2A, cyclic-(D-tyrosine-cysteine-tyrosine-D-tryptophan-lysine-valine-cysteine-t hreonine-NH2)]
[2]; [6]
  Kd: 5.73 ± 0.22 nM
[1]
  IC50: 4.84 ± 0.58 nM

## CC(C)[C@@H]1NC(=O)[C@H](CCCCN)NC(=O)[C@@H](Cc2c[nH]c3ccccc23)NC(=O)[C@H](Cc2ccc(O)cc2)NC(=O)[C@@H](NC(=O)[C@@H](Cc2ccc(O)cc2)NC(=O)[C@@H](N)Cc2ccc(O)cc2)CSSC[C@@H](C(=O)N[C@H](C(N)=O)[C@@H](C)O)NC1=O [WOC-3B, cyclic(tyrosine-D-tyrosine-cysteine-tyrosine-D-tryptophan-lysine-valine-cy steine-threonine)] (H-Y[dY]CY[dW]KVCT-NH2; disulfide 3-8)
[1]
  IC50: 0.66 ± 0.06 nM
[3]
  Fraction of labeled peptide degraded: 30%

## C[C@@H](O)[C@H](NC(=O)[C@@H]1CSSC[C@H](NC(=O)[C@@H](Cc2ccccc2)NC(=O)[C@H](CCCCNC(=O)[C@H](CCCCNC(=O)[C@H](CCCCNC(=O)[C@H](N)Cc2ccc(O)cc2)NC(=O)[C@H](N)Cc2ccc(O)cc2)NC(=O)[C@H](CCCCNC(=O)[C@H](N)Cc2ccc(O)cc2)NC(=O)[C@H](N)Cc2ccc(O)cc2)NC(=O)[C@H](CCCCNC(=O)[C@H](CCCCNC(=O)[C@H](N)Cc2ccc(O)cc2)NC(=O)[C@H](N)Cc2ccc(O)cc2)NC(=O)[C@H](CCCCNC(=O)[C@H](N)Cc2ccc(O)cc2)NC(=O)[C@H](N)Cc2ccc(O)cc2)C(=O)N[C@@H](Cc2ccccc2)C(=O)N[C@H](Cc2c[nH]c3ccccc23)C(=O)N[C@@H](CCCCN)C(=O)N[C@@H]([C@@H](C)O)C(=O)N1)C(N)=O [WOC-8, cyclic[(D-tyrosine)8-(lysine)4-(lysine)2-lysine-cysteine-phenylalanine-D-tryptophan-lysine-threonine-cysteine-threonine]]
[1]
  IC50: 2.46 ± 0.69 nM

## C[C@@H](O)[C@@H]1NC(=O)[C@H](CCCCN)NC(=O)[C@@H](Cc2c[nH]c3ccccc23)NC(=O)[C@H](Cc2ccccc2)NC(=O)[C@@H](NC(=O)[C@H](N)Cc2ccccc2)CSSC[C@@H](C(=O)N[C@H](CO)[C@@H](C)O)NC1=O [octreotide acetate, D-Phe-Cys-Phe-D-Trp-Lys-Thr-Cys-Thr(ol)]
[4]
  Tolerability of therapy: tolerated this therapy well
[4]; initial response, tumors later progressed
  Decrease in tumor volume: 25%

## CC(C)[C@@H]1NC(=O)[C@H](CCCCN)NC(=O)[C@@H](Cc2c[nH]c3ccccc23)NC(=O)[C@H](Cc2ccc(O)cc2)NC(=O)[C@@H](NC(=O)[C@@H](Cc2ccc(O)cc2)NC(=O)[C@H](C)NC(=O)[C@@H](N)Cc2ccc(O)cc2)CSSC[C@@H](C(=O)N[C@H](C(N)=O)[C@@H](C)O)NC1=O [WOC-3A, cyclic(tyrosine-alanine-D-tyrosine-cysteine-tyrosine-D-tryptophan-lysine-v aline-cysteine-threonine)] (H-YA[dY]CY[dW]KVCT-NH2; disulfide 4-9)
[2]; 10,000-fold excess of unlabeled WOC-3A or native somatostatin
  Displacement of bound radioactivity by unlabeled ligand: no radioactivity was displaced
[2]; radiolabeled analog
  Total binding of radiolabeled analog to IMR-32 membranes: high levels of total binding
[1]
  IC50: 0.96 ± 0.01 nM
[3]
  Fraction of labeled peptide degraded: 30%
[5]
  Radiation dose to bone marrow: > 450 rads

## C[C@@H](O)[C@H](NC(=O)[C@@H]1CSSC[C@H](NC(=O)[C@@H](Cc2ccc(O)cc2)NC(=O)[C@@H](N)Cc2ccc(O)cc2)C(=O)N[C@@H](Cc2ccccc2)C(=O)N[C@H](Cc2c[nH]c3ccccc23)C(=O)N[C@@H](CCCCN)C(=O)N[C@@H]([C@@H](C)O)C(=O)N1)C(N)=O [WOC-2B, cyclic-(tyrosine-D-tyrosine-cysteine-phenylalanine-D-tryptophan-lysine-thr eonine-cysteine-threonine-NH2)] (H-Y[dY]CF[dW]KTCT-NH2; disulfide 3-8)
[2]; [6]
  Kd: 1.2 nM

## C[C@@H](O)[C@H](NC(=O)[C@@H]1CSSC[C@H](NC(=O)[C@@H](Cc2ccc(O)cc2)NC(=O)[C@H](Cc2ccc(O)cc2)NC(=O)[C@H](Cc2ccc(O)cc2)NC(=O)[C@H](N)Cc2ccc(O)cc2)C(=O)N[C@@H](Cc2ccccc2)C(=O)N[C@H](Cc2c[nH]c3ccccc23)C(=O)N[C@@H](CCCCN)C(=O)N[C@@H]([C@@H](C)O)C(=O)N1)C(N)=O [WOC-4, cyclic(D-tyrosine-tyrosine-tyrosine-D-tyrosine-cysteine-phenylalanine-D-tr yptophan-lysine-threonine-cysteine-threonine)] (H-[dY]YY[dY]CF[dW]KTCT-NH2; disulfide 5-10)
[2]; [6]
  Kd: 1 nM

## CC(C)[C@@H]1NC(=O)[C@H](CCCCN)NC(=O)[C@@H](Cc2c[nH]c3ccccc23)NC(=O)[C@H](Cc2ccc(O)cc2)NC(=O)[C@@H](NC(=O)[C@H](N)Cc2ccc3ccccc3c2)CSSC[C@@H](C(=O)N[C@H](C(N)=O)[C@@H](C)O)NC1=O [LANREOTIDE ®, Dβ-Nal-Cys-Tyr-D-Trp-Lys-Val-Cys-Thr(NH2), reference compound]
[2]
  Kd: 1.05 ± 0.51 nM
[1]
  IC50: 0.4 ± 0.1 nM
